PMC6572573, “Development of a Ternary Solid Dispersion Formulation of LW6 to Improve the In Vivo Activity as a BCRP Inhibitor: Preparation and In Vitro/In Vivo Characterization” (Pharmaceutics, 2019)

What was measured:
[1] = In vitro drug release (dissolution) studies; type: physicochemical; details: 37 °C, 100 rpm
Experimental: The drug release profiles of each formulation were examined at different pH conditions (1.2, 4.0, and 6.8). Each formulation (drug amount equivalent to 1 mg of LW6) was dispersed in different release media (10 mL) and stirred at 100 rpm, 37 °C. At predetermined time points (10, 20, 30, 45, and 60 min), the samples were collected and filtered through a 0.45-µm pore-sized cellulose syringe filters. The drug concentration in each filtrate was determined by HPLC assay.
HPLC assay for LW6: The concentrations of LW6 from in vitro samples were determined using a HPLC system (Perkin Elmer series 200, Waltham, MA, USA) consisting of a UV detector, a pump, and an automatic injector. A reversed-phase C18 column (Gemini C18, 4.6 × 150 mm, 5 µm; Phenomenex, Torrance, CA, USA) was eluted with a mobile phase consisting of acetonitrile and 0.1% formic acid (80:20, v/v). The flow rate was 1.0 mL/min at 30 °C, and the UV wavelength was set at 254 nm. Valsartan was used as an internal standard, and the calibration curve of LW6 was linear (r^2 = 0.99) within the concentration range of 0.05 to 100 µg/mL.

BCRP = molecular target: T1, BCRP (Rattus norvegicus, UniProt Q80W57); assay: Oral pharmacokinetics of topotecan (BCRP substrate) in rats with/without co-administered LW6 formulations; type: in vivo
T1 construct: from tissue; host or cells: living male Sprague-Dawley rats (intestine)
T1 sequence (Q80W57 1-657): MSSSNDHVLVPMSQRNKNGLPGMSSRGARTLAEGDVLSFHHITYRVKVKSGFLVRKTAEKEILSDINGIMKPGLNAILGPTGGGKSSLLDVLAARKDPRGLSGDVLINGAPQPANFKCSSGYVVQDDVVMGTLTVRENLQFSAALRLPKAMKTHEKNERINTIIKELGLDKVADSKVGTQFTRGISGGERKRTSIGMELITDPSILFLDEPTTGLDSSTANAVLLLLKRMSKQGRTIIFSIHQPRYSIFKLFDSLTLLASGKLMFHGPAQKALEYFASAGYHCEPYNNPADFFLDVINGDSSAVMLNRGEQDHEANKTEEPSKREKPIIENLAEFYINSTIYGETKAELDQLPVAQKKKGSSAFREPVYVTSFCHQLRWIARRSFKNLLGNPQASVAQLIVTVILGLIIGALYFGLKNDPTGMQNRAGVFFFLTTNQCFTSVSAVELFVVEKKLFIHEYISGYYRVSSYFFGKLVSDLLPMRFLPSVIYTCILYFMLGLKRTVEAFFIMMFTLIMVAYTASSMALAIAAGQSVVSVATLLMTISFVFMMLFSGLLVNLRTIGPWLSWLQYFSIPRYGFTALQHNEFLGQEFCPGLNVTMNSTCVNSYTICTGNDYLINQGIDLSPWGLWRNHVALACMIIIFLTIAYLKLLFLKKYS
Experimental: The pharmacokinetic profiles of topotecan, which is a representative BCRP substrate, were examined in rats with/without the co-administration of LW6 in different formulations. Animal studies were carried out in accordance with the “Guiding Principles in the Use of Animals in Toxicology” adopted by the Society of Toxicology (USA), and the study protocol was approved by the review committee of Dongguk University (IACUC-2017-016-2). Male Sprague–Dawley rats (260–280 g) were provided by Orient bio Co., Ltd. (Seongnam, Korea). All the rats were given free access to tap water and a normal standard chow diet (Superfeed Company, Wonju, Korea). The rats were fasted for 18 h before the experiments, and divided into three groups (n = 3 per group). The pure drug or SD (equivalent to 20 mg/kg of LW6) was suspended in 0.5% aqueous methylcellulose with 5% polyethylene glycol (PEG) and topotecan (10 mg/kg) was dissolved in saline. Each formulation was given orally to the three groups of rats (group 1, topotecan only; group 2, topotecan + pure LW6; group 3, topotecan + SD of LW6). Blood samples were obtained from the femoral artery at the predetermined time points. The blood samples were centrifuged at 13,000 rpm for 5 min, and the obtained plasma samples were frozen at −20 °C until analyzed by liquid chromatography-tandem mass spectrometry (LC-MS/MS).
LC-MS/MS assay for topotecan: The concentration of topotecan in rat plasma was determined using LC-MS/MS assay as reported by Ye et al.. Briefly, 100 µL of plasma, 20 µL of the internal standard camptothecin (1 µg/mL), and 180 µL of methanol were mixed vigorously, and then centrifuged at 13,000 rpm for 5 min. After centrifugation, 240 µL of the supernatant was collected and dried under vacuum. After complete drying, the residue was re-dispersed in methanol and analyzed by LC-MS/MS. Chromatographic separation was done with a C18 column (4.6 × 100 mm, 2.6 μm; Phenomenex, Torrance, CA, USA) using a mobile phase consisting of acetonitrile and 0.1% formic acid (80:20, v/v) at a flow rate of 0.4 mL/min. Mass spectrometric detection was done using the AB Sciex API 4000 triple quadrupole mass spectrometer (AB Sciex, Framingham, MA, USA). The electrospray ionization (ESI) source was set in positive ionization mode. The precursor/product ion pair (m/z) was 422.2/377.1 for topotecan and 349.1/305.2 for camptothecin (IS). The calibration curve was prepared at concentrations of 1 to 1000 ng/mL with a good linearity of r^2 value greater than 0.99.
Based on the noncompartmental analysis, the area under the plasma concentration–time curve (AUC) was calculated using the linear trapezoidal method. The peak plasma concentration (Cmax) and the time to reach the peak plasma concentration (Tmax) were values recorded from the experimental data.

[2] = test system: breast cancer resistance protein (BCRP); parameters: method as in PMID 27520631; details: previous reports ref 4; cited from earlier work
[3] = Apparent aqueous solubility of LW6 formulations (HPLC); type: physicochemical; details: water
Experimental: For the selection of optimal carriers, SDs of LW6 were prepared with various hydrophilic polymers at a drug–carrier ratio of 1:5 using the solvent evaporation method. Briefly, LW6 was dissolved in dichloromethane by sonication for 10 min for complete solubilization. Each polymeric carrier was dissolved in dichloromethane and added to the drug solution. After vigorous mixing, all the solvents were eliminated under vacuum at room temperature. The resulting product was milled and sieved through an 80-mesh screen. The corresponding physical mixtures (PMs) were also prepared by mixing LW6 and each carrier with a mortar and pestle. The carrier that enhanced the LW6 solubility to the greatest extent was selected for preparing the ternary SD formulations of LW6. The effect of surfactants on the solubility of LW6 was also determined using a 10% aqueous solution of various surfactants.
Each formulation equivalent to 1 mg of LW6 was dissolved in 1 mL of distilled water and stirred at 300 rpm for 48 h at room temperature. […] The drug concentration in each filtrate was measured by HPLC assay.
HPLC assay for LW6: The concentrations of LW6 from in vitro samples were determined using a HPLC system (Perkin Elmer series 200, Waltham, MA, USA) consisting of a UV detector, a pump, and an automatic injector. […]

[4] = male, Sprague-Dawley, rat, plasma, oral topotecan 10 mg/kg, with or without LW6 20 mg/kg (pure or F8-SD), mean ± SD (n = 3)

Drug release within 20 min ([1]; acidic to neutral pH range (pH 1.2, 4.0, 6.8)) | Drug release within 1 h ([1]; water) | Increase in oral (systemic) exposure of topotecan by coadministration (BCRP; oral topotecan 10 mg/kg + LW6 20 mg/kg equivalent, versus topotecan only) | Aqueous solubility of pure LW6 (in words) [3] | AUC (BCRP; [4]) [ng·h/mL] | Cmax (BCRP; [4]) [ng/mL] | Tmax (BCRP; [4]) [min] | half-life (BCRP; male, Sprague-Dawley, rat, plasma, oral topotecan 10 mg/kg, with or without LW6 20 mg/kg (pure or F8-SD), mean ± SD (n = 3), read-out: T1/2 of topotecan (converted)) [min] | SMILES | BCRP inhibitory potency compared with typical BCRP inhibitor [2]
negligible | minimal | approximately threefold | practically insoluble | – | – | – | – | COC(=O)c1ccc(O)c(NC(=O)COc2ccc(C34CC5CC(CC(C5)C3)C4)cc2)c1 [LW6, 3-[2-(4-adamantan-1-yl-phenoxy)-acetylamino]-4-hydroxy-benzoic acid methyl ester] | more potent than Kol43
– | – | – | – | 204 ± 11.1 | 31.3 ± 7.1 | 24 ± 6 | 120 ± 24 | CC[C@@]1(O)C(=O)OCc2c1cc1n(c2=O)Cc2cc3c(CN(C)C)c(O)ccc3nc2-1 [Topotecan, topotecan] | –
